This test deals with leukemia cells. The test is described as follows: Absolute leukemia cell number quantification by flow cytometry in PBMCs from patients with CLL. The conditions noted are these: 0 - 400 nM, 24 hours; PBMCs from patients with CLL (n = 13); dose-dependent; Figure 1A. It counts as cell-based, human. The method, then: To evaluate absolute cell numbers, an equal volume of PKH26 reference microbeads (Sigma-Aldrich) was added to each sample after staining for immune subset identification. Microbeads (5x10^3) were acquired by flow cytometry and absolute numbers of each immune population within the sample were calculated. Normalized percentage values were calculated considering the control (DMSO)-treated cells as 100%.
The in vitro cytotoxic activity of EC-7072 against primary CLL cells was assessed by: • (i) incubating PBMCs isolated from patients with CLL (n = 13) following treatment with increasing concentrations of EC-7072 (0 - 400 nM) for 24 hours. Numbers of leukemia cells were evaluated by flow cytometry and normalized to their respective control (DMSO) condition for each individual patient to obtain percentage of leukemia cells (Figure 1A); • (ii) incubating PBMCs from patients with CLL (n = 10) with or without EC-7072 (100-400 nM) for 24 hours. Viability of leukemia cells was determined by cytofluorometric assessment of DiOC6(3)/PI staining and normalized to their respective control condition to obtain percentage viability (Figure 1B); • (iii) incubating PBMCs from patients with CLL (n = 10) with increasing concentrations of EC-7072 (0 - 400 nM) for 24 hours. […]
Background: In flow cytometry, cells or beads pass a laser one at a time.

In the case of `CO[C@@H]([C@@H]1Cc2cc3cc(O[C@H]4C[C@@H](O[C@H]5C[C@@H](O)[C@H](O)[C@@H](C)O5)[C@H](O)[C@@H](C)O4)c(C)c(O)c3c(O)c2C(=O)[C@H]1O[C@H]1C[C@@H](O[C@H]2C[C@@H](O[C@H]3C[C@](C)(O)[C@H](O)[C@@H](C)O3)[C@@H](O)[C@@H](C)O2)[C@H](O)[C@@H](C)O1)[C@@H](O)C(C)=O` [EC-7072, mithramycin SK], the leukemia cell numbers result is reported as “significantly decreased”.
